We go through 49 compounds from patent US8754079B2, “Cycloalkyl containing thienopyrimidines for pharmaceutical compositions” (Boehringer Ingelheim International GmbH, priority 2010, dated 2014).

What is called IC50 is the point on the concentration scale where inhibition reaches its midpoint.

This assay concerns the target T1, MNK2 (Homo sapiens, UniProt Q9HBH9).
T1 construct: the open reading frames of human Mnk1 and Mnk2a were amplified from cDNA; made in house; host or cells: E. coli BL21
The experiment in a line: Mnk2a in vitro kinase assay (indirect fluorescence polarization). It is filed as biochemical. The following applies: pre-activated GST-Mnk2a 2.5 nM, 20 μM ATP, 30 μM substrate peptide. Put shortly: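 Human GST-Mnk2a was expressed in E. coli and activated in vitro with 150 nM pre-activated ERK2 and 50 μM ATP in HEPES pH 7.4/MgCl2 buffer (45 min, 30 °C). Activity on an eIF4E Ser209-derived 12mer peptide was read by competitive fluorescence polarization with a phospho-specific antibody.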
A general note: Polarisation of emitted light reports the rotation of a fluorescent probe.

T1 sequence (Q9HBH9 whole entry): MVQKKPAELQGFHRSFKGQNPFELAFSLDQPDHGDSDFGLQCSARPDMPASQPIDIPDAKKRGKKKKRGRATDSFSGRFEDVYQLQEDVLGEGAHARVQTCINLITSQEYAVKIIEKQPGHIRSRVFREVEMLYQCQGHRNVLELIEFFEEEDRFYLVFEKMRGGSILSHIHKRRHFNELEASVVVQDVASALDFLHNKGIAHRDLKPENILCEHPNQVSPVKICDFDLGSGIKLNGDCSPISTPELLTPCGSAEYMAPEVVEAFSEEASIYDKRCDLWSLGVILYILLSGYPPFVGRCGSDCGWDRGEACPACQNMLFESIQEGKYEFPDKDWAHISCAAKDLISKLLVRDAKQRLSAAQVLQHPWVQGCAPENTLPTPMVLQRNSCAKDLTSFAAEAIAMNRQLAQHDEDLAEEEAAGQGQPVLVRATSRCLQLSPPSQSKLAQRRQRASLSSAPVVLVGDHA

`Cc1c(C(=O)NCCCCO)sc2ncnc(Nc3ccc(F)cc3O[C@H]3CC[C@H](O)CC3)c12` [Example 161] displayed a concentration for half-maximal inhibition (IC50) of 0.017 µM. In other words, the double-digit nanomolar range.
The compound `Cc1c(C(=O)NCc2cnco2)sc2ncnc(Nc3ccc(F)cc3O[C@H]3CC[C@H](O)CC3)c12` [Example 162] came in with an IC50 of 0.01 µM.
Under `Cc1c(C(=O)NCC#N)sc2ncnc(Nc3ccc(F)cc3O[C@H]3CC[C@H](O)CC3)c12` [Example 163] stands 0.009 µM.
`CNC(=O)CNC(=O)c1sc2ncnc(Nc3ccc(F)cc3O[C@H]3CC[C@H](O)CC3)c2c1C` [Example 164] had a 50% inhibitory concentration (IC50) of 0.016 µM.
As for `Cc1c(C(=O)NCC#CCN(C)C)sc2ncnc(Nc3ccc(F)cc3O[C@H]3CC[C@H](O)CC3)c12` [Example 165], inhibition was half-maximal at 0.008 µM (IC50).
Under `Cc1c(C(=O)NCC2CNCCO2)sc2ncnc(Nc3ccc(F)cc3O[C@H]3CC[C@H](O)CC3)c12` (stereo partly shown) [Example 166] stands 0.011 µM; under `Cc1c(C(=O)N[C@H]2CC[C@H](O)CC2)sc2ncnc(Nc3ccc(F)cc3O[C@H]3CC[C@H](O)CC3)c12` [Example 168], 0.02 µM; under `Cc1c(C(=O)NCCN2CCCCC2)sc2ncnc(Nc3ccc(F)cc3O[C@H]3CC[C@H](O)CC3)c12` [Example 170], 0.019 µM.
The value for `Cc1c(C(=O)NCC(C)O)sc2ncnc(Nc3ccc(F)cc3O[C@H]3CC[C@H](O)CC3)c12` (stereo partly shown) [Example 171] was 0.043 µM; that for `Cc1c(C(=O)NCCCO)sc2ncnc(Nc3ccc(F)cc3O[C@H]3CC[C@H](O)CC3)c12` [Example 172] was 0.016 µM; that for `CCNC(=O)c1sc2ncnc(Nc3ccc(F)cc3O[C@H]3CC[C@H](O)CC3)c2c1C` [Example 173] was 0.014 µM.
The value for `Cc1c(C(=O)NCc2cn(C)cn2)sc2ncnc(Nc3ccc(F)cc3O[C@H]3CC[C@H](O)CC3)c12` [Example 174] was 0.01 µM.
For the compound `CO[C@H]1CC[C@H](Oc2cc(F)ccc2Nc2ncnc3sc(C(N)=O)c(C)c23)CC1` [Example 175, 4-[4-Fluoro-2-(trans-4-methoxy-cyclohexyloxy)-phenylamino]-5-methyl-thieno[2,3-d]pyrimidine-6-carboxylic acid amide], the IC50 was found to be 0.009 µM. The IC50 values of the last two compounds are within 1.5-fold of each other.
Under `CO[C@H]1CC[C@H](Oc2cc(F)ccc2Nc2ncnc3sc(C(=O)NCC#CCN)c(C)c23)CC1` [Example 178] stands 0.016 µM; under `CO[C@H]1CC[C@H](Oc2cc(F)ccc2Nc2ncnc3sc(C(=O)NCC4COCCN4)c(C)c23)CC1` (stereo partly shown) [Example 179], 0.03 µM.
Turning to `CO[C@H]1CC[C@H](Oc2cc(F)ccc2Nc2ncnc3sc(C(=O)NCC4CNCCO4)c(C)c23)CC1` (stereo partly shown) [Example 180], half-maximal inhibition (IC50) required 0.016 µM.
The value for `COC1CCC(Oc2cc(F)ccc2Nc2ncnc3sc(C(=O)NCCCCO)c(C)c23)CC1` (stereo not shown) [Example 181] was 0.021 µM; that for `CO[C@H]1CC[C@H](Oc2cc(F)ccc2Nc2ncnc3sc(C(=O)NCC#N)c(C)c23)CC1` [Example 182] was 0.015 µM; that for `CO[C@H]1CC[C@H](Oc2cc(F)ccc2Nc2ncnc3sc(C(=O)N[C@H]4CC[C@H](O)CC4)c(C)c23)CC1` [Example 183] was 0.023 µM.
Regarding `CO[C@H]1CC[C@H](Oc2cc(F)ccc2Nc2ncnc3sc(C(=O)NCC(C)O)c(C)c23)CC1` (stereo partly shown) [Example 184], half-maximal inhibition (IC50) was put at 0.038 µM.
The compound `CO[C@H]1CC[C@H](Oc2cc(F)ccc2Nc2ncnc3sc(C(=O)NCc4cnco4)c(C)c23)CC1` [Example 185] showed a concentration for half-maximal inhibition (IC50) of 0.017 µM.
Under `CO[C@H]1CC[C@H](Oc2cc(F)ccc2Nc2ncnc3sc(C(=O)NCc4cn(C)cn4)c(C)c23)CC1` [Example 186] stands 0.02 µM.
The compound `CO[C@H]1CC[C@H](Oc2cc(F)ccc2Nc2ncnc3sc(C(=O)NCC#CCN(C)C)c(C)c23)CC1` [Example 187] came in with an IC50 of 0.021 µM.
`CNC(=O)CNC(=O)c1sc2ncnc(Nc3ccc(F)cc3O[C@H]3CC[C@H](OC)CC3)c2c1C` [Example 188] had a half-inhibitory concentration (IC50) of 0.02 µM. The IC50 values of the last two compounds are within 1.5-fold of each other.
For `CO[C@H]1CC[C@H](Oc2cc(F)ccc2Nc2ncnc3sc(C(=O)N[C@H]4C[C@@H]4N)c(C)c23)CC1` [Example 189], the 50% inhibitory concentration (IC50) was 0.028 µM.
`CO[C@H]1CC[C@H](Oc2cc(F)ccc2Nc2ncnc3sc(C(=O)NCCN4CCCCC4)c(C)c23)CC1` [Example 190] came in with a half-inhibitory concentration (IC50) of 0.03 µM.
Under `CO[C@H]1CC[C@H](Oc2cc(F)ccc2Nc2ncnc3sc(C(=O)NCCCN4CCOCC4)c(C)c23)CC1` [Example 192, 4-[4-Fluoro-2-(trans-4-methoxy-cyclohexyloxy)-phenylamino]-5-methyl-thieno[2,3-d]pyrimidine-6-carboxylic acid (3-morpholin-4-yl-propyl)-amide] stands 0.021 µM.
For the compound `CO[C@H]1CC[C@H](Oc2cc(F)ccc2Nc2ncnc3sc(C(=O)NCCN(C)C)c(C)c23)CC1` [Example 193], the IC50 is 0.043 µM. This IC50 lies about 2-fold higher than the previous one.
Under `CO[C@H]1CC[C@H](Oc2cc(F)ccc2Nc2ncnc3sc(C(=O)NCCCO)c(C)c23)CC1` [Example 195] stands 0.019 µM.
Under `CO[C@H]1CC[C@H](Oc2cc(F)ccc2Nc2ncnc3sc(C(=O)NCCO)c(C)c23)CC1` [Example 196] stands 0.017 µM; under `CO[C@H]1CC[C@H](Oc2cc(F)ccc2Nc2ncnc3sc(C(=O)NCCCn4ccnc4)c(C)c23)CC1` [Example 197], 0.001 µM.
Regarding `CO[C@H]1CC[C@H](Oc2cc(F)ccc2Nc2ncnc3sc(C(=O)NCC4CN(C)CCO4)c(C)c23)CC1` (stereo partly shown) [Example 199], it took 0.015 µM to reach half-maximal inhibition (IC50).
`CO[C@H]1CC[C@H](Oc2cc(F)ccc2Nc2ncnc3sc(C(=O)NCC4CCCNC4)c(C)c23)CC1` (stereo partly drawn) [Example 200, 4-[4-Fluoro-2-(trans-4-methoxy-cyclohexyloxy)-phenylamino]-5-methyl-thieno[2,3-d]pyrimidine-6-carboxylic acid (piperidin-3-ylmethyl)-amide]: half-maximal inhibition (IC50) was put at 0.017 µM.
Consider `CO[C@H]1CC[C@H](Oc2cc(F)ccc2Nc2ncnc3sc(C(=O)NCCCN4CCC(O)C4)c(C)c23)CC1` (stereo partly drawn) [Example 201, 4-[4-Fluoro-2-(trans-4-methoxy-cyclohexyloxy)-phenylamino]-5-methyl-thieno[2,3-d]pyrimidine-6-carboxylic acid [3-(3-hydroxy-pyrrolidin-1-yl)-propyl]-amide], for which the half-inhibitory concentration (IC50) is 0.016 µM.
The value for `CO[C@H]1CC[C@@H](Oc2cc(F)ccc2Nc2ncnc3sc(C(=O)NCCCN(C)C)c(C)c23)CC1` [Example 202, 4-[4-Fluoro-2-(cis-4-methoxy-cyclohexyloxy)-phenylamino]-5-methyl-thieno[2,3-d]pyrimidine-6-carboxylic acid (3-dimethylamino-propyl)-amide] was 0.046 µM; that for `COCCNC(=O)c1sc2ncnc(Nc3ccc(F)cc3O[C@H]3CC[C@@H](OC)CC3)c2c1C` [Example 203] was 0.062 µM.
For `Cc1c(C(N)=O)sc2ncnc(Nc3cccnc3O[C@H]3CC[C@H](O)CC3)c12` [Example 204, 4-[2-(trans-4-Hydroxy-cyclohexyloxy)-pyridin-3-ylamino]-5-methyl-thieno[2,3-d]pyrimidine-6-carboxylic acid amide], the IC50 turned out to be 0.005 µM.
The value for `Cc1c(C(N)=O)sc2ncnc(Nc3cccnc3O[C@H]3CC[C@@H](O)CC3)c12` [Example 205, 4-[2-(cis-4-Hydroxy-cyclohexyloxy)-pyridin-3-ylamino]-5-methyl-thieno[2,3-d]pyrimidine-6-carboxylic acid amide] was 0.01 µM; that for `Cc1c(C(=O)NCCCN(C)C)sc2ncnc(Nc3cccnc3O[C@H]3CC[C@H](O)CC3)c12` [Example 206, 4-[2-(trans-4-Hydroxy-cyclohexyloxy)-pyridin-3-ylamino]-5-methyl-thieno[2,3-d]pyrimidine-6-carboxylic acid (3-dimethylamino-propyl)-amide] was 0.013 µM.
The compound `CO[C@H]1CC[C@H](Oc2ncccc2Nc2ncnc3sc(C(N)=O)c(C)c23)CC1` [Example 207, 4-[2-(trans-4-Methoxy-cyclohexyloxy)-pyridin-3-ylamino]-5-methyl-thieno[2,3-d]pyrimidine-6-carboxylic acid amide] showed an IC50 of 0.009 µM.
`CNC(=O)c1sc2ncnc(Nc3cccnc3O[C@H]3CC[C@H](OC)CC3)c2c1C` [Example 208] yielded a half-inhibitory concentration (IC50) of 0.014 µM. This IC50 is about 1.6-fold higher than that of the compound before.
Consider `Cc1c(C(N)=O)sc2ncnc(Nc3ccc(F)cc3O[C@@H]3C[C@@H](O)[C@@H](O)C3)c12` [Example 212], for which the IC50 was 0.008 µM.
`Cc1c(C(N)=O)sc2ncnc(Nc3ccc(F)cc3O[C@H]3C[C@@H]4OC(C)(C)O[C@@H]4C3)c12` [Example 213]: the IC50 was found to be 0.074 µM.
The compound `Cc1c(C(N)=O)sc2ncnc(Nc3ccc(F)cc3O[C@H]3C[C@@H]4OCO[C@@H]4C3)c12` [Example 214] showed a half-inhibitory concentration (IC50) of 0.009 µM.
Compound `CO[C@H]1C[C@@H](Oc2cc(F)ccc2Nc2ncnc3sc(C(N)=O)c(C)c23)C[C@H]1OC` [Example 216] came in with an IC50 of 0.053 µM.
On to `Cc1c(C(N)=O)sc2ncnc(Nc3ccc(F)cc3O[C@@H]3C[C@@H]4OCO[C@@H]4C3)c12` [Example 218], for which the IC50 was determined as 0.038 µM.
On to `Cc1c(C(N)=O)sc2ncnc(Nc3ccc(F)cc3O[C@@H]3C[C@@H]4OC(C)(C)O[C@@H]4C3)c12` [Example 220], for which the IC50 was 0.39 µM.
As for `Cc1c(C(N)=O)sc2ncnc(Nc3ccc(F)cc3OC3CCC(O)C3)c12` (stereo not shown) [Example 225, 4-(4-fluoro-2-(3-hydroxycyclopentyloxy)phenylamino)-5-methylthieno[2,3-d]pyrimidine-6-carboxamide], the IC50 worked out at 0.006 µM.
Consider `Cc1c(C(=O)NCCCN(C)C)sc2ncnc(Nc3ccc(F)cc3OC3CCC(O)C3)c12` (stereo not shown) [Example 226, N-(3-(dimethylamino)propyl)-4-(4-fluoro-2-(3-hydroxycyclopentyloxy)phenylamino)-5-methylthieno[2,3-d]pyrimidine-6-carboxamide], for which 0.01 µM corresponded to half-maximal inhibition (IC50).
